Data: PubChem BioAssay AID248 (DTP/NCI, 2004)
Where “and” joins values, the source holds several entries; their conditions need not be identical. Equal values may be shown once. Toxic doses and inconclusive results are not listed.

Test system: L1210 leukemia ip in BDF1 mice, survival T/C
Assay: NCI In Vivo Anticancer Drug Screen. Data for tumor model L1210 Leukemia (intraperitoneal) in B6D2F1 (BDF1) mice
Conditions: endpoint: mean survival time, higher = longer survival
How it was run: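 Transplanted-tumor mice were given test agent; controls received vehicle only. Survival readings from the two groups were divided (treated over control).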

Question: What does the source list for `O=NN(CCCl)C(=O)NC1CC2CCC1C2` (centres undefined)?
Answer: T/C (dose: 1.04 mg/kg/injection, schedule: Q#B X Z (ip), vehicle: other): 96 % of control; T/C (dose: 2.0 mg/kg/injection, schedule: Q01DX001 (ip), vehicle: carboxymethylcellulose (CMC)): 112 % of control; T/C (dose: 3.1 mg/kg/injection, schedule: Q01DX015 (ip), vehicle: other): 114 % of control; T/C (dose: 3.12 mg/kg/injection, schedule: Q03HX008 (oral), vehicle: carboxymethylcellulose (CMC)): 188 % of control; T/C (dose: 3.12 mg/kg/injection, schedule: Q03HX024 (oral), vehicle: carboxymethylcellulose (CMC)): 261 % of control; T/C (dose: 4.0 mg/kg/injection, schedule: Q01DX001 (ip), vehicle: carboxymethylcellulose (CMC)): 115 % of control; T/C (dose: 4.9 mg/kg/injection, schedule: Q01DX015 (ip), vehicle: other): 210 % of control; T/C (dose: 6.25 mg/kg/injection, schedule: Q01DX001 (im), vehicle: other): 112 % of control; T/C (dose: 6.25 mg/kg/injection, schedule: Q01DX001 (ip), vehicle: other): 109 % of control and 118 % of control; T/C (dose: 6.25 mg/kg/injection, schedule: Q01DX001 (ip), vehicle: saline): 98 % of control and 101 % of control; T/C (dose: 6.25 mg/kg/injection, schedule: Q01DX001 (iv), vehicle: other): 105 % of control; T/C (dose: 6.25 mg/kg/injection, schedule: Q01DX001 (oral), vehicle: other): 100 % of control; T/C (dose: 6.25 mg/kg/injection, schedule: Q01DX001 (sc), vehicle: other): 114 % of control; T/C (dose: 6.25 mg/kg/injection, schedule: Q03DX Z (ip), vehicle: other): 156 % of control; T/C (dose: 6.25 mg/kg/injection, schedule: Q03HX008 (oral), vehicle: carboxymethylcellulose (CMC)): 188 % of control; T/C (dose: 6.25 mg/kg/injection, schedule: Q07DX Z (ip), vehicle: other): 121 % of control; T/C (dose: 8.0 mg/kg/injection, schedule: Q01DX001 (ip), vehicle: carboxymethylcellulose (CMC)): 124 % of control; T/C (dose: 8.0 mg/kg/injection, schedule: Q01DX009 (ip), vehicle: carboxymethylcellulose (CMC)): 227 % of control; T/C (dose: 8.0 mg/kg/injection, schedule: Q01DX009 (oral), vehicle: carboxymethylcellulose (CMC)): 227 % of control; T/C (dose: 8.0 mg/kg/injection, schedule: Q04DX003 (ip), vehicle: carboxymethylcellulose (CMC)): 150 % of control; T/C (dose: 8.33 mg/kg/injection, schedule: Q#B X Z (ip), vehicle: other): 105 % of control; T/C (dose: 9.6 mg/kg/injection, schedule: Q## X032 (ip), vehicle: other): 150 % of control; T/C (dose: 12.0 mg/kg/injection, schedule: Q01DX001 (ip), vehicle: carboxymethylcellulose (CMC)): 124 % of control; T/C (dose: 12.5 mg/kg/injection, schedule: Q01DX001 (ip), vehicle: other): 150 % of control; T/C (dose: 12.5 mg/kg/injection, schedule: Q01DX001 (ip), vehicle: saline): 103 % of control and 106 % of control; T/C (dose: 12.5 mg/kg/injection, schedule: Q01DX001 (sc), vehicle: other): 151 % of control; T/C (dose: 12.5 mg/kg/injection, schedule: Q03DX Z (ip), vehicle: other): 235 % of control; T/C (dose: 12.5 mg/kg/injection, schedule: Q04DX003 (oral), vehicle: carboxymethylcellulose (CMC)): 177 % of control; T/C (dose: 12.5 mg/kg/injection, schedule: Q07DX Z (ip), vehicle: other): 179 % of control; T/C (dose: 14.5 mg/kg/injection, schedule: Q## X001 (ip), vehicle: other): 172 % of control; T/C (dose: 15.0 mg/kg/injection, schedule: Q## X032 (ip), vehicle: other): 158 % of control; T/C (dose: 16.0 mg/kg/injection, schedule: Q01DX001 (ip), vehicle: carboxymethylcellulose (CMC)): 179 % of control; T/C (dose: 16.0 mg/kg/injection, schedule: Q01DX015 (ip), vehicle: other): 261 % of control; T/C (dose: 16.0 mg/kg/injection, schedule: Q04DX003 (ip), vehicle: carboxymethylcellulose (CMC)): 193 % of control; T/C (dose: 25.0 mg/kg/injection, schedule: Q01DX001 (im), vehicle: other): 214 % of control; T/C (dose: 25.0 mg/kg/injection, schedule: Q01DX001 (ip), vehicle: carboxymethylcellulose (CMC)): 196 % of control; T/C (dose: 25.0 mg/kg/injection, schedule: Q01DX001 (ip), vehicle: other): 220 % of control; T/C (dose: 25.0 mg/kg/injection, schedule: Q01DX001 (oral), vehicle: other): 210 % of control; T/C (dose: 25.0 mg/kg/injection, schedule: Q01DX001 (sc), vehicle: other): 227 % of control; T/C (dose: 25.0 mg/kg/injection, schedule: Q03HX008 (ip), vehicle: carboxymethylcellulose (CMC)): 107 % of control; T/C (dose: 25.0 mg/kg/injection, schedule: Q03HX008 (oral), vehicle: carboxymethylcellulose (CMC)): 155 % of control; T/C (dose: 25.0 mg/kg/injection, schedule: Q03HX024 (oral), vehicle: carboxymethylcellulose (CMC)): 150 % of control; T/C (dose: 25.0 mg/kg/injection, schedule: Q03HX040 (ip), vehicle: carboxymethylcellulose (CMC)): 114 % of control; T/C (dose: 25.0 mg/kg/injection, schedule: Q04DX005 (ip), vehicle: carboxymethylcellulose (CMC)): 186 % of control; T/C (dose: 26.0 mg/kg/injection, schedule: Q01DX001 (ip), vehicle: carboxymethylcellulose (CMC)): 162 % of control; T/C (dose: 29.0 mg/kg/injection, schedule: Q01DX001 (ip), vehicle: other): 180 % of control and 240 % of control; T/C (dose: 29.25 mg/kg/injection, schedule: Q01DX001 (oral), vehicle: other): 156 % of control and 160 % of control; T/C (dose: 29.25 mg/kg/injection, schedule: Q## X001 (oral), vehicle: other): 196 % of control; T/C (dose: 30.0 mg/kg/injection, schedule: Q01DX001 (oral), vehicle: other): 229 % of control; T/C (dose: 32.0 mg/kg/injection, schedule: Q01DX009 (ip), vehicle: carboxymethylcellulose (CMC)): 196 % of control; T/C (dose: 32.0 mg/kg/injection, schedule: Q01DX009 (oral), vehicle: carboxymethylcellulose (CMC)): 187 % of control; T/C (dose: 32.4 mg/kg/injection, schedule: Q01DX001 (ip), vehicle: carboxymethylcellulose (CMC)): 109 % of control; T/C (dose: 35.0 mg/kg/injection, schedule: Q## X032 (ip), vehicle: other): 158 % of control; T/C (dose: 40.0 mg/kg/injection, schedule: Q01DX001 (ip), vehicle: carboxymethylcellulose (CMC)): 191 % of control; T/C (dose: 50.0 mg/kg/injection, schedule: Q01DX001 (ip), vehicle: saline): 242 % of control; T/C (dose: 50.0 mg/kg/injection, schedule: Q01DX009 (oral), vehicle: carboxymethylcellulose (CMC)): 200 % of control; T/C (dose: 50.0 mg/kg/injection, schedule: Q04DX005 (ip), vehicle: carboxymethylcellulose (CMC)): 230 % of control; T/C (dose: 50.0 mg/kg/injection, schedule: Q07DX Z (ip), vehicle: other): 223 % of control; T/C (dose: 50.0 mg/kg/injection, schedule: Q## X009 (ip), vehicle: carboxymethylcellulose (CMC)): 190 % of control; T/C (dose: 53.0 mg/kg/injection, schedule: Q## X032 (ip), vehicle: other): 121 % of control; T/C (dose: 54.0 mg/kg/injection, schedule: Q01DX001 (ip), vehicle: carboxymethylcellulose (CMC)): 115 % of control; T/C (dose: 64.0 mg/kg/injection, schedule: Q01DX005 (ip), vehicle: carboxymethylcellulose (CMC)): 119 % of control; T/C (dose: 64.0 mg/kg/injection, schedule: Q01DX009 (ip), vehicle: carboxymethylcellulose (CMC)): 123 % of control; T/C (dose: 64.0 mg/kg/injection, schedule: Q01DX009 (oral), vehicle: carboxymethylcellulose (CMC)): 106 % of control; T/C (dose: 64.0 mg/kg/injection, schedule: Q04DX003 (ip), vehicle: carboxymethylcellulose (CMC)): 118 % of control; T/C (dose: 66.0 mg/kg/injection, schedule: Q## X004 (ip), vehicle: other): 191 % of control; T/C (dose: 88.0 mg/kg/injection, schedule: Q01DX001 (oral), vehicle: other): 167 % of control; T/C (dose: 90.0 mg/kg/injection, schedule: Q01DX001 (ip), vehicle: carboxymethylcellulose (CMC)): 242 % of control; T/C (dose: 100.0 mg/kg/injection, schedule: Q01DX001 (ip), vehicle: carboxymethylcellulose (CMC)): 227 % of control; T/C (dose: 100.0 mg/kg/injection, schedule: Q01DX001 (ip), vehicle: other): 225 % of control; T/C (dose: 100.0 mg/kg/injection, schedule: Q01DX001 (oral), vehicle: carboxymethylcellulose (CMC)): 245 % of control; T/C (dose: 100.0 mg/kg/injection, schedule: Q01DX001 (oral), vehicle: other): 190 % of control; T/C (dose: 100.0 mg/kg/injection, schedule: Q01DX001 (sc), vehicle: other): 221 % of control; T/C (dose: 100.0 mg/kg/injection, schedule: Q01DX005 (ip), vehicle: carboxymethylcellulose (CMC)): 108 % of control; T/C (dose: 100.0 mg/kg/injection, schedule: Q01DX017 (ip), vehicle: carboxymethylcellulose (CMC)): 118 % of control; T/C (dose: 100.0 mg/kg/injection, schedule: Q04DX003 (oral), vehicle: carboxymethylcellulose (CMC)): 194 % of control; T/C (dose: 100.0 mg/kg/injection, schedule: Q## X006 (oral), vehicle: carboxymethylcellulose (CMC)): 161 % of control; T/C (dose: 100.0 mg/kg/injection, schedule: Q## X009 (ip), vehicle: carboxymethylcellulose (CMC)): 111 % of control; T/C (dose: 117.0 mg/kg/injection, schedule: Q01DX001 (oral), vehicle: other): 105 % of control; T/C (dose: 117.0 mg/kg/injection, schedule: Q## X001 (oral), vehicle: other): 122 % of control; T/C (dose: 128.0 mg/kg/injection, schedule: Q01DX001 (ip), vehicle: carboxymethylcellulose (CMC)): 104 % of control; T/C (dose: 128.0 mg/kg/injection, schedule: Q01DX001 (oral), vehicle: carboxymethylcellulose (CMC)): 245 % of control; T/C (dose: 128.0 mg/kg/injection, schedule: Q01DX005 (ip), vehicle: carboxymethylcellulose (CMC)): 93 % of control; T/C (dose: 187.0 mg/kg/injection, schedule: Q01DX001 (ip), vehicle: carboxymethylcellulose (CMC)): 224 % of control; T/C (dose: 200.0 mg/kg/injection, schedule: Q01DX001 (ip), vehicle: carboxymethylcellulose (CMC)): 94 % of control and 111 % of control; T/C (dose: 200.0 mg/kg/injection, schedule: Q01DX001 (ip), vehicle: other): 118 % of control; T/C (dose: 200.0 mg/kg/injection, schedule: Q01DX001 (iv), vehicle: other): 183 % of control; T/C (dose: 200.0 mg/kg/injection, schedule: Q01DX001 (oral), vehicle: carboxymethylcellulose (CMC)): 122 % of control; T/C (dose: 200.0 mg/kg/injection, schedule: Q04DX005 (ip), vehicle: carboxymethylcellulose (CMC)): 96 % of control; T/C (dose: 256.0 mg/kg/injection, schedule: Q01DX001 (sc), vehicle: carboxymethylcellulose (CMC)): 109 % of control; T/C (dose: 400.0 mg/kg/injection, schedule: Q01DX001 (ip), vehicle: other): 107 % of control; T/C (dose: 125.0 micrograms/kg/injection, schedule: Q03HX024 (ip), vehicle: carboxymethylcellulose (CMC)): 114 % of control; T/C (dose: 250.0 micrograms/kg/injection, schedule: Q03HX024 (ip), vehicle: carboxymethylcellulose (CMC)): 165 % of control; T/C (dose: 2000.0 micrograms/kg/injection, schedule: Q03HX008 (ip), vehicle: carboxymethylcellulose (CMC)): 253 % of control
